{
  "source": "patent US20240033234A1",
  "about": "“THERAPEUTIC COMPOUNDS, FORMULATIONS, AND USE THEREOF” (Tvardi Therapeutics, Inc., priority 2022, published 2024)",
  "assay": "3-Month stability data for TTI-101 Batches B, C, D and E stored at 40° C./75% RH",
  "assay_type": "physicochemical",
  "description": "Exemplary HPLC conditions: diluent was 0.1% trifluoroacetic acid (TFA) in acetonitrile, Mobile Phase A was 0.05% TFA in water, and Mobile Phase B was 0.05% TFA in acetonitrile, column (Agilent, Eclipse XDB-C18, 3.0×100 mm, particle size 1.8 μm), flow (0.425 mL/min), and detector (280 nm diode array).\nBatches B, C, and D were prepared according to Method 5, Method 4, and Method 3, respectively, as described in Example 1. Batch E was prepared analogously using according to Method 1 as described in Example 1.\nSamples of TTI-101 (Batches B, C, D, and E) were stored at 40° C./75% RH for 3 months. The batches were individually stored in an low density polyethylene (LDPE) bag enclosed with a Nylon cable tie and then transferred to another LDPE bag and enclosed with a Nylon cable tie. The enclosure was put into a high density polyethylene (HDPE) bottle and closed with a polyethylene-lined polypropylene cap. For Batch B only, another sample was enclosed in a screw-top amber glass bottle and closed with a cap. The samples were stored under the above-identified conditions.",
  "note": "Several values for one entry are separate records, joined by “and”; a condition that tells them apart may be missing. Identical values can stand only once.",
  "data": [
    {"molecule": "COc1ccc(S(=O)(=O)Nc2cc(-c3c(O)ccc4ccccc34)c(O)c3ccccc23)cc1", "note": "[Batch B (LDPE storage)]", "values": [
      {"measurement": "Impurities Total, Area %", "setting": "0 M", "result": 0.2, "unit": "Area %"},
      {"measurement": "Impurity RRT 0.39, Area %", "setting": "0 M", "result": 0.06, "unit": "Area %"},
      {"measurement": "Impurity RRT 0.49, Area %", "setting": "0 M", "result": "NQ (≥0.02% and <0.05%)"},
      {"measurement": "Impurity RRT 0.54, Area %", "setting": "0 M", "result": "NQ (≥0.02% and <0.05%)"},
      {"measurement": "Impurity RRT 0.99, Area %", "setting": "0 M", "result": "NQ (≥0.02% and <0.05%)"},
      {"measurement": "Impurity RRT 1.16 (Cmp 6), Area %", "setting": "0 M", "result": 0.12, "unit": "Area %"},
      {"measurement": "Impurities Total, Area %", "setting": "1 M", "result": "0.1 Area % and 0.3 Area %"},
      {"measurement": "Impurity RRT 0.80, Area %", "setting": "1 M", "result": "NQ (≥0.02% and <0.05%)"},
      {"measurement": "Impurity RRT 0.84, Area %", "setting": "1 M", "result": "NQ (≥0.02% and <0.05%)"},
      {"measurement": "Impurity RRT 0.87, Area %", "setting": "1 M", "result": "NQ (≥0.02% and <0.05%)"},
      {"measurement": "Impurity RRT 0.99, Area %", "setting": "1 M", "result": "NQ (≥0.02% and <0.05%)"},
      {"measurement": "Impurity RRT 1.02, Area %", "setting": "1 M", "result": 0.05, "unit": "Area %"},
      {"measurement": "Impurity RRT 1.05, Area %", "setting": "1 M", "result": "NQ (≥0.02% and <0.05%)"},
      {"measurement": "Impurity RRT 1.06 (Cmp 4), Area %", "setting": "1 M", "result": "NQ (≥0.02% and <0.05%)"},
      {"measurement": "Impurity RRT 1.17 (Cmp 6), Area %", "setting": "1 M", "result": 0.24, "unit": "Area %"},
      {"measurement": "Impurity RRT 1.39, Area %", "setting": "1 M", "result": "NQ (≥0.02% and <0.05%)"},
      {"measurement": "Impurities Total, Area %", "setting": "2 M", "result": 0.6, "unit": "Area %"},
      {"measurement": "Impurity RRT 0.39, Area %", "setting": "2 M", "result": "NQ (≥0.02% and <0.05%)"},
      {"measurement": "Impurity RRT 0.51, Area %", "setting": "2 M", "result": 0.06, "unit": "Area %"},
      {"measurement": "Impurity RRT 0.80, Area %", "setting": "2 M", "result": "NQ (≥0.02% and <0.05%)"},
      {"measurement": "Impurity RRT 0.84, Area %", "setting": "2 M", "result": "NQ (≥0.02% and <0.05%)"},
      {"measurement": "Impurity RRT 0.87, Area %", "setting": "2 M", "result": "NQ (≥0.02% and <0.05%)"},
      {"measurement": "Impurity RRT 0.99, Area %", "setting": "2 M", "result": "NQ (≥0.02% and <0.05%)"},
      {"measurement": "Impurity RRT 1.02, Area %", "setting": "2 M", "result": 0.11, "unit": "Area %"},
      {"measurement": "Impurity RRT 1.05, Area %", "setting": "2 M", "result": "NQ (≥0.02% and <0.05%)"},
      {"measurement": "Impurity RRT 1.06 (Cmp 4), Area %", "setting": "2 M", "result": "NQ (≥0.02% and <0.05%)"},
      {"measurement": "Impurity RRT 1.17 (Cmp 6), Area %", "setting": "2 M", "result": 0.32, "unit": "Area %"},
      {"measurement": "Impurity RRT 1.39, Area %", "setting": "2 M", "result": "0.10 Area % and 0.1 Area %"},
      {"measurement": "Impurities Total, Area %", "setting": "3 M", "result": 3.2, "unit": "Area %"},
      {"measurement": "Impurity RRT 0.40, Area %", "setting": "3 M", "result": "NQ (≥0.02% and <0.05%)"},
      {"measurement": "Impurity RRT 0.85, Area %", "setting": "3 M", "result": "NQ (≥0.02% and <0.05%)"},
      {"measurement": "Impurity RRT 0.88, Area %", "setting": "3 M", "result": "NQ (≥0.02% and <0.05%)"},
      {"measurement": "Impurity RRT 0.98, Area %", "setting": "3 M", "result": "NQ (≥0.02% and <0.05%)"},
      {"measurement": "Impurity RRT 1.02, Area %", "setting": "3 M", "result": 0.13, "unit": "Area %"},
      {"measurement": "Impurity RRT 1.05, Area %", "setting": "3 M", "result": "NQ (≥0.02% and <0.05%)"},
      {"measurement": "Impurity RRT 1.06 (Cmp 4), Area %", "setting": "3 M", "result": "NQ (≥0.02% and <0.05%)"},
      {"measurement": "Impurity RRT 1.13, Area %", "setting": "3 M", "result": "NQ (≥0.02% and <0.05%)"},
      {"measurement": "Impurity RRT 1.16 (Cmp 6), Area %", "setting": "3 M", "result": 2.9, "unit": "Area %"},
      {"measurement": "Impurity RRT 1.38 (1.39), Area %", "setting": "3 M", "result": 0.16, "unit": "Area %"},
      {"measurement": "Purity (%)", "setting": "T = 0 month (0 M)", "result": "99.8% and 99.6%"},
      {"measurement": "Purity (%)", "setting": "T = 1 month (1 M)", "result": 99.5, "unit": "%"},
      {"measurement": "Purity (%)", "setting": "T = 2 months (2 M)", "result": 99.2, "unit": "%"},
      {"measurement": "Purity (%)", "setting": "T = 3 months (3 M)", "result": 96.6, "unit": "%"}
    ]},
    {"molecule": "COc1ccc(S(=O)(=O)Nc2cc(-c3c(O)ccc4ccccc34)c(O)c3ccccc23)cc1", "note": "[Batch B (glass storage)]", "values": [
      {"measurement": "Impurities Total, Area %", "setting": "0 M", "result": 0.2, "unit": "Area %"},
      {"measurement": "Impurity RRT 0.39, Area %", "setting": "0 M", "result": 0.06, "unit": "Area %"},
      {"measurement": "Impurity RRT 0.49, Area %", "setting": "0 M", "result": "NQ (≥0.02% and <0.05%)"},
      {"measurement": "Impurity RRT 0.54, Area %", "setting": "0 M", "result": "NQ (≥0.02% and <0.05%)"},
      {"measurement": "Impurity RRT 0.99, Area %", "setting": "0 M", "result": "NQ (≥0.02% and <0.05%)"},
      {"measurement": "Impurity RRT 1.16 (Cmp 6), Area %", "setting": "0 M", "result": 0.12, "unit": "Area %"},
      {"measurement": "Impurities Total, Area %", "setting": "1 M", "result": 0.3, "unit": "Area %"},
      {"measurement": "Impurity RRT 0.80, Area %", "setting": "1 M", "result": "NQ (≥0.02% and <0.05%)"},
      {"measurement": "Impurity RRT 0.84, Area %", "setting": "1 M", "result": "NQ (≥0.02% and <0.05%)"},
      {"measurement": "Impurity RRT 0.87, Area %", "setting": "1 M", "result": "NQ (≥0.02% and <0.05%)"},
      {"measurement": "Impurity RRT 0.99, Area %", "setting": "1 M", "result": 0.05, "unit": "Area %"},
      {"measurement": "Impurity RRT 1.02, Area %", "setting": "1 M", "result": 0.06, "unit": "Area %"},
      {"measurement": "Impurity RRT 1.06 (Cmp 4), Area %", "setting": "1 M", "result": "NQ (≥0.02% and <0.05%)"},
      {"measurement": "Impurity RRT 1.17 (Cmp 6), Area %", "setting": "1 M", "result": 0.23, "unit": "Area %"},
      {"measurement": "Impurity RRT 1.39, Area %", "setting": "1 M", "result": "NQ (≥0.02% and <0.05%)"},
      {"measurement": "Impurities Total, Area %", "setting": "2 M", "result": 0.4, "unit": "Area %"},
      {"measurement": "Impurity RRT 0.39, Area %", "setting": "2 M", "result": "NQ (≥0.02% and <0.05%)"},
      {"measurement": "Impurity RRT 0.80, Area %", "setting": "2 M", "result": "NQ (≥0.02% and <0.05%)"},
      {"measurement": "Impurity RRT 0.84, Area %", "setting": "2 M", "result": "NQ (≥0.02% and <0.05%)"},
      {"measurement": "Impurity RRT 0.87, Area %", "setting": "2 M", "result": "NQ (≥0.02% and <0.05%)"},
      {"measurement": "Impurity RRT 0.99, Area %", "setting": "2 M", "result": "NQ (≥0.02% and <0.05%)"},
      {"measurement": "Impurity RRT 1.02, Area %", "setting": "2 M", "result": 0.10, "unit": "Area %"},
      {"measurement": "Impurity RRT 1.05, Area %", "setting": "2 M", "result": "NQ (≥0.02% and <0.05%)"},
      {"measurement": "Impurity RRT 1.06 (Cmp 4), Area %", "setting": "2 M", "result": "NQ (≥0.02% and <0.05%)"},
      {"measurement": "Impurity RRT 1.17 (Cmp 6), Area %", "setting": "2 M", "result": "0.323 Area % and 0.23 Area %"},
      {"measurement": "Impurity RRT 1.39, Area %", "setting": "2 M", "result": 0.09, "unit": "Area %"},
      {"measurement": "Impurities Total, Area %", "setting": "3 M", "result": 2.9, "unit": "Area %"},
      {"measurement": "Impurity RRT 0.40, Area %", "setting": "3 M", "result": "NQ (≥0.02% and <0.05%)"},
      {"measurement": "Impurity RRT 0.85, Area %", "setting": "3 M", "result": "NQ (≥0.02% and <0.05%)"},
      {"measurement": "Impurity RRT 0.88, Area %", "setting": "3 M", "result": "NQ (≥0.02% and <0.05%)"},
      {"measurement": "Impurity RRT 0.98, Area %", "setting": "3 M", "result": "NQ (≥0.02% and <0.05%)"},
      {"measurement": "Impurity RRT 1.02, Area %", "setting": "3 M", "result": 0.13, "unit": "Area %"},
      {"measurement": "Impurity RRT 1.06 (Cmp 4), Area %", "setting": "3 M", "result": "NQ (≥0.02% and <0.05%)"},
      {"measurement": "Impurity RRT 1.10, Area %", "setting": "3 M", "result": "NQ (≥0.02% and <0.05%)"},
      {"measurement": "Impurity RRT 1.13, Area %", "setting": "3 M", "result": "NQ (≥0.02% and <0.05%)"},
      {"measurement": "Impurity RRT 1.16 (Cmp 6), Area %", "setting": "3 M", "result": 2.6, "unit": "Area %"},
      {"measurement": "Impurity RRT 1.38 (1.39), Area %", "setting": "3 M", "result": 0.14, "unit": "Area %"},
      {"measurement": "Purity (%)", "setting": "T = 0 month (0 M)", "result": "99.8% and 99.6%"},
      {"measurement": "Purity (%)", "setting": "T = 1 month (1 M)", "result": 99.5, "unit": "%"},
      {"measurement": "Purity (%)", "setting": "T = 2 months (2 M)", "result": 99.4, "unit": "%"},
      {"measurement": "Purity (%)", "setting": "T = 3 months (3 M)", "result": 97.0, "unit": "%"}
    ]}
  ]
}
